Measured values: patent publication US20180251431A1 (VERTEX PHARMACEUTICALS INCORPORATED, priority 2016, published 2018)

Test system: HEK293 cells
Assay: HEK293 VLCFA-LPC IC50 determination (13C-labeled C26:0 LPC by UHPLC/MS)
Type: cell-based, human
Details: Homo sapiens, HEK293, HEK293 cells; average of one or more replicates; read-out: Average HEK293 IC50
Protocol: HEK293 cells were treated with compounds, such as those listed in Tables A-E of Example 1, using the representative manual protocols described below. The protocols below were also adapted to a semi-automated protocol using standard methods in the art.
Cell Culture Growth Conditions:
HEK293 cells were maintained in FreeStyle F17 media (Gibco # A13835) supplemented with PenStrep (1%, Gibco #15070-063), Glutamax (2%, Gibco #35050-061), and Pluronic (0.1%, Gibco #24040-032) (“supplemented media”). Suspension cultures were grown in disposable Erlenmeyer flasks at about 120 rpm, 37° C., 5% CO2, and 80% humidity. Cell densities were kept between about 0.5 and 3 million cells per mL, in about 50-200 mL per flask.
Treatment of Cells with Compounds Provided Herein:
The cells were treated with compounds using either a total of 900 uL cell media volume (high-volume assay) or a total of 200 uL cell media volume (low-volume assay). In the high volume assay, 450 μL of supplemented media plus 13C-acetate (1.0 mg/mL, Sigma Aldrich #282014) were added to 0.5 μL of a compound (such as those in Tables A-E) in DMSO in a polypropylene v-bottom plate (Costar #3363) in 1 of 3 dilution schemes. The contents of each well were mixed and transferred to a sterile polypropylene deep-well v-bottom plate (Costar #3960). 450 μL of cultured HEK293 cells in supplemented media at a density of 1.0 million cells/mL was added to each well. In the low volume assay, 100 μL of supplemented media plus 13C-acetate (1.0 mg/mL, Sigma Aldrich #282014) were added to either 0.1 μL or 1.0 uL of a compound (such as those in Tables A-E) in DMSO in a polypropylene v-bottom plate (Costar #3363) in 1 of 3 dilution schemes. 100 μL of cultured HEK293 cells in supplemented media at a density of 1.0 million cells/mL was added to each well. The high volume and low volume plates were sealed with either AirPore Tape Sheets (Qiagen #19571) or Duetz plate covers to control evaporation and placed into a shaking incubator at 225 rpm, 37° C., 5% CO2, and 80% humidity for 48 hours. For both the high and low volume assays the 3 dilution schemes used were as follows:
Following incubation, treated cells were harvested by centrifugation at 1690×g for 10 minutes. In the high volume assay 200 uL treated cells were transferred to a polypropylene v-bottom plate (Costar #3363) prior to centrifugation. In the low volume assay the incubation plate was centrifuged directly, without a transfer step. The supernatant was then discarded and the analytes were extracted using 1 of 2 different extraction schemes. In the first scheme, the cell pellet was visibly broken up by mixing the cell pellet up and down in 100 μL of hexane/isopropanol (60:40) 20 times. The resulting mixture was transferred to a 0.45 μm Durapore membrane (Millipore #MSH VN4510) atop a polypropylene v-bottom plate (Costar #3363) and filtered by centrifugation at 1690×g for 5 minutes. 120 μL of n-butanol containing 10 nM C13:0 lysophosphatidylcholine was added to the filtrate as an injection control standard, then the entire volume was transferred to a new Durapore membrane/v-bottom plate. In the second scheme, the cell pellet was visibly broken up by mixing the cell pellet up and down in 180 μL of methanol containing 10 nM C13:0 lysophosphatidylcholine 20 times. The resulting mixture was transferred to a 0.45 μm Durapore membrane (Millipore #MSH VN4510) atop a polypropylene v-bottom plate and filtered by centrifugation at 1690×g for 5 minutes. In both schemes, the plates were then sealed with pierceable capmats (Micronic MP53017) and stored at −20 OC until analyzed.
UHPLC/Mass Spectrometry Readout:
The filtered organic extraction was analyzed with a 1290 Agilent Infinity Series UHPLC coupled to an ABI Sciex QTrap 6500 mass spectrometer. […]

Row | SMILES | IC50 [nM]
1 | COc1ccc(CC(=O)Nc2ccn(-c3ccccc3)n2)cc1C [Compound 62, 2-(4-methoxy-3-methyl-phenyl)-N-(1-phenylpyrazol-3-yl)acetamide] | 3700
2 | COc1ccc(CC(=O)Nc2ccn(-c3ccccc3)n2)cc1F [Compound 63, 2-(3-fluoro-4-methoxy-phenyl)-N-(1-phenylpyrazol-3-yl)acetamide] | > 5000
3 | O=C(Cc1ccc(F)c(Cl)c1)Nc1ccn(-c2ccccc2)n1 [Compound 64, 2-(3-chloro-4-fluoro-phenyl)-N-(1-phenylpyrazol-3-yl)acetamide] | > 5000
4 | COc1ccc(CC(=O)Nc2ccn(-c3ccccc3)n2)cc1OC [Compound 66, 2-(3,4-dimethoxylphenyl)-N-(1-phenylpyrazol-3-yl)acetamide] | 2800
5 | O=C(Cc1ccc(Cl)c(Cl)c1)Nc1ccn(-c2ccccc2)n1 [Compound 68, 2-(3,4-dichlorophenyl)-N-(1-phenylpyrazol-3-yl)acetamide] | > 5000
6 | O=C(Cc1cccc(Cl)c1Cl)Nc1ccn(-c2ccccc2)n1 [Compound 69, 2-(2,3-dichlorophenyl)-N-(1-phenylpyrazol-3-yl)acetamide] | 5000
7 | O=C(Cc1c(Cl)cccc1Cl)Nc1ccn(-c2ccccc2)n1 [Compound 70, 2-(2,6-dichlorophenyl)-N-(1-phenylpyrazol-3-yl)acetamide] | > 2000
8 | O=C(Cc1ccc(F)c(C(F)(F)F)c1)Nc1ccn(-c2ccccc2)n1 [Compound 71, 2-[4-fluoro-3-(trifluoromethyl)phenyl]-N-(1-phenylpyrazol-3-yl)acetamide] | > 5000
9 | O=C(Cc1cc(F)cc(C(F)(F)F)c1)Nc1ccn(-c2ccccc2)n1 [Compound 72, 2-[3-fluoro-5-(trifluoromethyl)phenyl]-N-(1-phenylpyrazol-3-yl)acetamide] | > 5000
10 | O=C(Cc1cc(C(F)(F)F)cc(C(F)(F)F)c1)Nc1ccn(-c2ccccc2)n1 [Compound 73, 2-[3,5-bis(trifluoromethyl)phenyl]-N-(1-phenylpyrazol-3-yl)acetamide] | > 5000
11 | O=C(Cc1ccc(F)c(F)c1F)Nc1ccn(-c2ccccc2)n1 [Compound 74, N-(1-phenylpyrazol-3-yl)-2-(2,3,4-trifluorophenyl)acetamide] | > 5000
12 | O=C(Cc1cc(F)c(F)cc1F)Nc1ccn(-c2ccccc2)n1 [Compound 75, N-(1-phenylpyrazol-3-yl)-2-(2,4,5-trifluorophenyl)acetamide] | > 2000
13 | O=C(Cc1c(F)cc(F)cc1F)Nc1ccn(-c2ccccc2)n1 [Compound 76, N-(1-phenylpyrazol-3-yl)-2-(2,4,6-trifluorophenyl)acetamide] | 72
14 | Cc1ccc(C(C)C(=O)Nc2ccn(-c3ccccc3)n2)cc1 (centres unmarked) [Compound 77, N-(1-phenylpyrazol-3-yl)-2-(p-tolyl)propanamide] | 3300
15 | CC(C)Cc1ccc(C(C)C(=O)Nc2ccn(-c3ccccc3)n2)cc1 (centres unmarked) [Compound 78, 2-(4-isobutylphenyl)-N-(1-phenylpyrazol-3-yl)propanamide] | > 5000
16 | O=C(Nc1ccn(-c2ccccc2)n1)C1(c2ccc(Cl)cc2)CCCC1 [Compound 79, 1-(4-chlorophenyl)-N-(1-phenylpyrazol-3-yl)cyclopentanecarboxamide] | > 5000
17 | CC(C(=O)Nc1ccn(-c2ccccc2)n1)c1ccccc1 (centres unmarked) [Compound 80, 2-phenyl-N-(1-phenylpyrazol-3-yl)propanamide] | 47
18 | O=C(Nc1ccn(-c2nccs2)n1)C1(c2ccccc2)CC1 [Compound 81, 1-phenyl-N-(1-thiazol-2-ylpyrazol-3-yl)cyclopropanecarboxamide] | 11
19 | O=C(Nc1ccn(-c2ncccc2F)n1)C1(c2ccccc2)CC1 [Compound 82, N-[1-(3-fluoro-2-pyridyl)pyrazol-3-yl]-1-phenyl-cyclopropanecarboxamide] | 190

Row | SMILES | IC50 [nM]
20 | O=C(Cc1ccccc1)Nc1ccn(-c2ccnc(Cl)c2)n1 [Compound 83, N-(1-(2-chloropyridin-4-yl)-1H-pyrazol-3-yl)-2-phenylacetamide] | 600
21 | O=C(Nc1ccn(-c2ccnc(Cl)c2)n1)C1(c2ccccc2)CC1 [Compound 84, N-(1-(2-chloropyridin-4-yl)-1H-pyrazol-3-yl)-1-phenylcyclopropane-1-carboxamide] | 61
22 | O=C(Nc1ccn(-c2cncnc2)n1)C1(c2ccccc2F)CC1 [Compound 85, 1-(2-fluorophenyl)-N-(1-pyrimidin-5-ylpyrazol-3-yl)cyclopropanecarboxamide] | 95
23 | O=C(Cc1ccccc1)Nc1ccn(-c2ccccn2)n1 [Compound 86, 2-phenyl-N-[1-(2-pyridyl)pyrazol-3-yl]acetamide] | 680
24 | O=C(Cc1ccc(F)cc1)Nc1ccn(-c2ncccc2F)n1 [Compound 88, 2-(4-fluorophenyl)-N-[1-(3-fluoro-2-pyridyl)pyrazol-3-yl]acetamide] | > 5000
25 | O=C(Cc1ccccc1)Nc1ccn(-c2nccs2)n1 [Compound 89, 2-phenyl-N-(1-thiazol-2-ylpyrazol-3-yl)acetamide] | 340
26 | O=C(Cc1ccccc1F)Nc1ccn(-c2nccs2)n1 [Compound 90, 2-(2-fluorophenyl)-N-(1-thiazol-2-ylpyrazol-3-yl)acetamide] | 350
27 | O=C(Cc1ccc(F)cc1)Nc1ccn(-c2nccs2)n1 [Compound 91, 2-(4-fluorophenyl)-N-(1-thiazol-2-ylpyrazol-3-yl)acetamide] | 1900
28 | O=C(Nc1ccn(-c2nccs2)n1)C1(c2ccccc2F)CC1 [Compound 92, 1-(2-fluorophenyl)-N-(1-thiazol-2-ylpyrazol-3-yl)cyclopropanecarboxamide] | 38
29 | O=C(Cc1ccccc1)Nc1ccn(-c2ncccc2F)n1 [Compound 93, N-[1-(3-fluoro-2-pyridyl)pyrazol-3-yl]-2-phenyl-acetamide] | > 10000
30 | O=C(Cc1ccccc1F)Nc1ccn(-c2ncccc2F)n1 [Compound 94, 2-(2-fluorophenyl)-N-[1-(3-fluoro-2-pyridyl)pyrazol-3-yl]acetamide] | > 10000
31 | O=C(Nc1ccn(-c2ncccc2F)n1)C1(c2ccccc2F)CC1 [Compound 95, 1-(2-fluorophenyl)-N-[1-(3-fluoro-2-pyridyl)pyrazol-3-yl]cyclopropanecarboxamide] | 390
32 | O=C(Cc1ccccc1)Nc1ccn(-c2cncnc2)n1 [Compound 96, 2-phenyl-N-(1-pyrimidin-5-ylpyrazol-3-yl)acetamide] | 2400
33 | O=C(Cc1ccc(F)cc1)Nc1ccn(-c2cncnc2)n1 [Compound 97, 2-(4-fluorophenyl)-N-(1-pyrimidin-5-ylpyrazol-3-yl)acetamide] | > 10000
34 | O=C(Nc1ccn(-c2cncnc2)n1)C1(c2ccccc2)CC1 [Compound 98, 1-phenyl-N-(1-pyrimidin-5-ylpyrazol-3-yl)cyclopropanecarboxamide] | 110
35 | O=C(Cc1ccccc1)Nc1ccn(-c2ccncc2)n1 [Compound 99, 2-phenyl-N-[1-(4-pyridyl)pyrazol-3-yl]acetamide] | 760
36 | O=C(Nc1ccn(-c2ccncc2)n1)C1(c2ccccc2)CC1 [Compound 100, 1-phenyl-N-[1-(4-pyridyl)pyrazol-3-yl]cyclopropanecarboxamide] | 33
37 | O=C(Nc1ccn(-c2ccncc2)n1)C1(c2ccccc2F)CC1 [Compound 101, 1-(2-fluorophenyl)-N-[1-(4-pyridyl)pyrazol-3-yl]cyclopropanecarboxamide] | 75
38 | O=C(Cc1ccc(F)cc1)Nc1ccn(-c2ccncc2)n1 [Compound 102, 2-(4-fluorophenyl)-N-[1-(4-pyridyl)pyrazol-3-y]+acetamide] | 3600
